The text below walks through data of paper PMC3805573, “Methylglyoxal Evokes Pain by Stimulating TRPA1” (PLoS ONE, 2013).

One series deals with T1, mTRPA1 K712Q (Mus musculus, UniProt Q8BLA8, K712Q).
T1 construct: expressed in transfected cells; host or cells: CHO cells
In words: [Ca2+]i-responses of mTRPA1 K712Q in CHO cells. In kind it is cell-based. The procedure:
(§1) Untransfected CHO cells and CHO cells expressing mouse or human TRPA1 were grown in MEM Glutamax or AQ medium supplemented with penicillin (100 U/ml), streptomycin (100 µg/ml), and FCS (10%). Plasmids encoding mutated TRPA1 channels were kindly provided by Dr. Ardem Patapoutian. All media, serum and antibiotics were from Invitrogen (Paisley, UK) or Sigma (Poole, UK).
(§2) Cells were loaded with 2 µM Fura-2 AM (Molecular Probes, Paisley, UK) in the presence of 1 mM probenecid for ∼1 hr. The experiments were performed in a physiological saline solution containing (in mM) 140 NaCl, 5 KCl, 10 glucose, 10 HEPES, 2 CaCl2, and 1 MgCl2, buffered to pH 7.4 with NaOH. Compounds were applied to cells by local continuous microperfusion of solution through a fine tube placed in close proximity of the cells studied. Images of a group of cells were captured every 2 sec using 340 and 380 nm excitation wavelengths with emission measured at 520 nm with a microscope based imaging system (PTI, New Jersey). Analyses of emission intensity ratios at 340 nm/380 nm excitation (R, in individual cells) were performed using the ImageMaster suite of software.

For series [1], the system named is human TRPA1 C621S, C641S or C665S. In words: [Ca2+]i-responses of human TRPA1 point mutants C621S, C641S, C665S. The series is classed as cell-based. Conditions: human TRPA1 single point mutants vs wildtype. The procedure:
as §1
as §2, with “Analyses of emission intensity ratios at 340 nm/380 nm excitation (R, in individual cells) were performed using the ImageMaster suite of software.” left out
Changes in intracellular calcium ([Ca^2+]i) in response to agonists were determined in TRPA1 expressing CHO cells and MDCK cells using a Flexstation 3 (Molecular Devices). […] Basal emission ratios (340 nm/380 nm) were measured and changes in ratio determined at various times after compound addition.

For another series, the system named is MDCK cells. In words: [Ca2+]i-measurements in MDCK cells. In kind it is cell-based, Canine. The method, then:
MDCK cells were grown in DMEM (Invitrogen) supplemented with 5% fetal bovine serum, 100 U/ml penicillin and 100 µg/ml streptomycin. […] The experiments were performed in a physiological saline solution containing (in mM) 140 NaCl, 5 KCl, 10 glucose, 10 HEPES, 2 CaCl2, and 1 MgCl2, buffered to pH 7.4 with NaOH. Compounds were applied to cells by local continuous microperfusion of solution through a fine tube placed in close proximity of the cells studied. […] Analyses of emission intensity ratios at 340 nm/380 nm excitation (R, in individual cells) were performed using the ImageMaster suite of software. […] Cells grown in 96 well black walled plates (Costar, Tewksbury, MA) were loaded with Fura 2-AM in the presence of 1 mM probenecid at 37°C for 1–1.5 hours and assays were carried out at 25°C. Basal emission ratios (340 nm/380 nm) were measured and changes in ratio determined at various times after compound addition.

For the next series, the system named is TRPA1. Put plainly: Outward TRPA1 currents in absence of Ca2+, effect of DTT. The series is classed as cell-based. The note with it: +60 mV, Ca2+-free. The method, then:
DRG neurons and TRPA1 CHO cells were studied under voltage-clamp conditions using an Axopatch 200B amplifier and pClamp 10.0 software (Molecular Devices, Sunnyvale, CA). Except where stated otherwise, whole cell recordings were performed at a holding potential of –60 mV using an extracellular solution with the composition described above for [Ca^2+]i measurements. Borosilicate glass pipettes (2–5 MΩ, 75–80% series resistance compensation) were filled with (in mM) 140 KCl, 1 CaCl2, 2 MgATP, 10 EGTA, and 10 HEPES buffered to pH 7.4 (KOH). Excised inside-out patches were recorded using a Ca^2+-free solution containing (in mM) 140 NaCl, 5 KCl, 1 MgCl2, 10 HEPES and 1 EGTA, pH 7.4 (NaOH) in the pipettes and perfused with 140 KCl, 2 MgATP, 1 EGTA, and 10 HEPES (pH 7.4). DRG neurons were studied using an intracellular solution containing (in mM) 140 CsCl, 1 CaCl2, 2 MgATP, 10 EGTA and 10 HEPES, pH 7.4 (CsOH). Drugs were applied by local microperfusion with a rapid solution changer (RSC-200, Biologic, Claix, France).
It is possible that MG stimulates TRPA1 through formation of reversible hemithioacetals with cysteine residues other than those examined here, [40]. To investigate this possibility we examined the effect of the reducing agent dithiothreitol (DTT, 2 mM) on outward TRPA1 currents recorded in the absence of Ca^2+ (5 mM BAPTA intracellularly, 1 mM EGTA extracellularly) to avoid Ca^2+-mediated inactivation or desensitization. We used DTT to determine whether disulfide bridge formation or reversible noncovalent interactions contribute to the agonist activity of MG. DTT is expected to rapidly reduce cystine bridges to free thiols, but also to form hemithioacetals with MG, thereby accelerating current decay. Covalent modification of arginine and lysine residues by MG and modification of cysteine residues by AITC are on the other hand resistant to DTT [31]. […] This is consistent with the expected oxidative formation of cystine bridges and their reduction by DTT [4]. The contrast between the stable currents produced by H2O2 and the spontaneously reversible currents evoked by MG highlights the reversible nature of the interaction between MG and TRPA1. […] We also observed that repeated applications of MG and H2O2 evoked reproducible current responses of similar amplitudes, whereas an application of AITC prevented subsequent channel activation by AITC challenges (Fig. 4C-E). We conclude that MG acts through a reversible interaction with TRPA1 and that H2O2 relies on DTT sensitive oxidative modification of TRPA1 protein for its activity. […] In contrast, the covalent modification produced by AITC appears irreversible and renders TRPA1 refractory to subsequent activation.

In a further series the test system is beta cells. In words: [Ca2+]i-responses in pancreatic beta cells. The note with it: AITC, cells from wildtype or Trpa1-/- mice (data not shown). In kind it is cell-based, mice. The method, then:
Mouse islets of Langerhans were isolated from the exocrine pancreas by collagenase digestion (1 mg/ml, type XI, Sigma, Poole, UK). Islets were dissociated by 15 min incubation in trypsin (0.5%, Sigma, Poole, UK) followed by trituration through a flame polished glass Pasteur pipette and the islet cells were seeded on glass cover slips.
as §2

For series [2], the system named is Trpa1+/+ and Trpa1-/- mice. Put plainly: Intraepidermal nerve fiber density in plantar skin (PGP9.5). The series is classed as in vivo. The note with it: 2 weeks treatment, 50 mg/kg every other day, either genotype. The method, then: Formalin fixed plantar skin was embedded in paraffin wax and cut in 8 µm sections and stained with rabbit polyclonal anti-PGP9.5 (1 in 5000, Ultraclone Ltd, UK) after citric acid heat induced epitope retrieval. Staining was visualized using anti-rabbit IgG labeled with Alexa-594. The number of PGP9.5 positive fibers crossing the basal membrane into the epidermis was determined in n = 6 mice for each group on a Zeiss Axioplan 2 microscope. The observer was blinded to the treatment.

Series [3] concerns Trpa1+/+ and Trpa1-/- mice. Put plainly: Two week GLO-1 inhibition, nociceptive responses to cold, heat and mechanical stimulation. The series is classed as in vivo. The procedure:
Data shown are from male and female homozygote Trpa1^− ^/− and Trpa1 ^+/+. The Trpa1-null mice and wild-type littermates were bred from heterozygotic mice provided by Drs. Kelvin Kwan and David Corey (Harvard Medical School, Boston, MA).
(§3) Mechanical thresholds were measured using an Analgesymeter (Ugo-Basile, Milan). Mice were kept in their holding cages to acclimatize (10–15 min) to the experimental room. The experimenter then lightly restrained the mouse and applied an increasing pressure stimulus to the dorsal surface of the hind paw using a blunt conical probe. The nociceptive threshold was defined as the force in grams at which the mouse withdrew its paw. In order to avoid tissue injury a 150 g force cut-off value was used.
Tactile allodynia was assessed by measuring withdrawal thresholds to calibrated von Frey filaments (0.008–2 g). Animals were placed in a Perspex chamber with a metal grid floor giving access to the underside of their paws and allowed to acclimatize prior to the start of the experiment. Von Frey filaments were applied perpendicular to the mid plantar surface of the hind paw with sufficient force to cause slight bending against the paw and held for a few seconds. This was repeated 5 times at intervals of 1–2 s. A positive response was noted if the paw was sharply withdrawn or there was flinching upon removal of the hair. […] Using a modified ‘up-down’ method the lowest force filament producing a positive response was recorded as the threshold.
Heat and cold sensitivities were assessed by measuring the time for paw withdrawal from a 50°C hotplate or 10°C coldplate (Ugo Basile, Milan) of lightly restrained mice.
(§4) Methylglyoxal (250 nmoles in 25 µl saline) was injected subcutaneously into the plantar surface of one of the hind paws using a 50 µl luer-syringe (Hamilton Co.) fitted with a 26-gauge x 3/8 inch intradermal needle. Immediately after injection, mice were placed inside a Perspex chamber and the duration of the pain-related behaviors (licking and biting or flinching and shaking of the injected paw) recorded using a digital stop-watch. […]

The next series concerns mice. Put plainly: Acute GLO-1 inhibition, paw pressure and von Frey tests. In kind it is in vivo. Conditions: 1 h after administration, 50 mg/kg i.p. The method, then:
as §3
Tactile allodynia was assessed by measuring withdrawal thresholds to calibrated von Frey filaments (0.008–2 g). Animals were placed in a Perspex chamber with a metal grid floor giving access to the underside of their paws and allowed to acclimatize prior to the start of the experiment. […] Using a modified ‘up-down’ method the lowest force filament producing a positive response was recorded as the threshold.
as §4

The subject of series [4] is Trpa1+/+ and Trpa1-/- mice. In words: Glucose tolerance test, blood glucose. The series is classed as in vivo. The method, then:
The glucose tolerance test was performed in mice (not fasted) treated i.p. with 2 g/kg glucose or vehicle (0.2 ml, 0.9% saline). HC030031 (100 mg/kg) or vehicle (DMSO 10%, Tween 80 5%, 0.9% saline 85%) was administered i.p. 30 min before glucose or vehicle. Glucose concentrations were determined using a Contour blood glucose meter (Bayer Diabetes Care) in blood samples taken from the tail-tip.

T1 sequence (Q8BLA8 whole entry K712Q): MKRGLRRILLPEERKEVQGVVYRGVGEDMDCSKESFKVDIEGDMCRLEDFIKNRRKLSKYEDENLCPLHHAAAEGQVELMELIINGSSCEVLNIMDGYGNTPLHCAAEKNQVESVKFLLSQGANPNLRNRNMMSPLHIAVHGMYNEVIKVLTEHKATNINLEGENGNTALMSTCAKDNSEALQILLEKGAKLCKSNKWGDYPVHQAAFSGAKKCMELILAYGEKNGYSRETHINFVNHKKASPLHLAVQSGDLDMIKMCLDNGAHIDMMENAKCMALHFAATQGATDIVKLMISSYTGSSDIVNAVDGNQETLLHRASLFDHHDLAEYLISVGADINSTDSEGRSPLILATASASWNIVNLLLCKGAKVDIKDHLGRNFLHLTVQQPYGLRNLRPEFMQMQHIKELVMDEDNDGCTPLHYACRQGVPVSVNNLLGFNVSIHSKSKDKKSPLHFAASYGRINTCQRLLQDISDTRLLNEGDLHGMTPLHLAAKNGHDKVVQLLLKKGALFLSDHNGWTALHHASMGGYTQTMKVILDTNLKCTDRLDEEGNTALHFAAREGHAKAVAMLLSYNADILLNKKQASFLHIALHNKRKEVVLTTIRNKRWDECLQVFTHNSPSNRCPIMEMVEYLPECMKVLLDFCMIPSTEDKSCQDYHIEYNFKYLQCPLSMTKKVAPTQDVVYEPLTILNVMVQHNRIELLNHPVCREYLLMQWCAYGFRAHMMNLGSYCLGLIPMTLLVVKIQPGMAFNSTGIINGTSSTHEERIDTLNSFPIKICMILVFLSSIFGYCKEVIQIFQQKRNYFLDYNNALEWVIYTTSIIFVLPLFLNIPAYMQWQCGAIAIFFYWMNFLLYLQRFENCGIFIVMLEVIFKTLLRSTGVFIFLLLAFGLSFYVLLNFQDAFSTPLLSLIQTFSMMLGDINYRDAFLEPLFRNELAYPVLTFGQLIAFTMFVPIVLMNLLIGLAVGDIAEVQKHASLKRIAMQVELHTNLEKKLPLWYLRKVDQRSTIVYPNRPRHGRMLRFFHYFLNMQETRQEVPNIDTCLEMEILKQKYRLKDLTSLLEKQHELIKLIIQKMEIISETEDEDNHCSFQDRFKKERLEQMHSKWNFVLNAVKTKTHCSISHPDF

For `C=CCN=C=S` [AITC], the “amplitude of [Ca2+]i-responses in mTRPA1 K712Q compared to WT mTRPA1” value on mTRPA1 K712Q (AITC 50 µM) is recorded as “significantly reduced”. In addition, the “effect of substitutions C621S, C641S, C665S on sensitivity to AITC” value in [1] is on record as “very substantially reduced”. Besides, the “[Ca2+]i-influx response” value in the series on MDCK cells (100 µM) was “evoked [Ca^2+]i-influx responses”. Besides, the concentration giving a half-maximal response (EC50) (commonly the concentration needed to bring the measured effect to its halfway point) in the series on MDCK cells (read-out: EC50, [Ca2+]i-responses) worked out at 9.1 ± 2 µM. Further, in the series with TRPA1 (AITC 50 µM), the “effect of DTT (2 mM) on agonist-evoked TRPA1 current” value is reported as “resistant to treatment with DTT” and the “outward TRPA1 current after removal of agonist” value is recorded as “declined with time after removal of AITC”. In the series on beta cells, the “[Ca2+]i-responses in beta cells” value was “failed to elicit [Ca^2+]i-responses”.
As to `CC(=Cc1ccc(Cl)cc1)C(C)=NO` [AP18, 4-(4-chlorophenyl)-3-methylbut-3-en-2-one oxime], in the series with MDCK cells (AP18 10 µM), the “effect on concentration-response curves for AITC and MG” value is listed as “produced similar rightward shifts”.
As to `NC(CCC(=O)NC(CSCc1ccc(Br)cc1)C(=O)NCC(=O)OC1CCCC1)C(=O)OC1CCCC1` (stereo not drawn) [GLO-1 inhibitor, Sr-p-Bromobenzylglutathione cyclopentyl diester], the “IENF density compared to vehicle treated mice” value in [2] is “failed to produce a significant reduction”. For the same compound, the “sensitivity to all four test modalities” value in series [3] (Trpa1+/+ mice, after day 4, 7 administrations over 2 weeks, 50 mg/kg i.p.) is listed as “progressively increased”. In addition, the “sensitivity to cold, heat, paw-pressure and von Frey stimulation” value in [3] (first 4 days of the study, 50 mg/kg i.p. every 2 days) is “no increased sensitivity in any of the tests”. Besides, the persistence of hypersensitivities result in series [3] (two weeks after cessation of drug administration) is listed as “no sign of reversal”. In the series with mice, the “sensitivity in the paw pressure test” value is reported as “unaffected” and the “sensitivity in the von Frey filaments test” value is on record as “unaffected”.
Take `CC(C)c1ccc(NC(=O)Cn2cnc3c2c(=O)n(C)c(=O)n3C)cc1` [HC030031]: the “blood glucose in mice not challenged with glucose” value in [4] (100 mg/kg i.p.) was “increased the blood glucose”. Moreover, the “blood glucose following a glucose challenge” value in series [4] (100 mg/kg i.p. 30 min before glucose 2 g/kg i.p., both Trpa1+/+ and Trpa1-/- mice) is reported as “dramatically enhanced the increase in blood glucose”.
On to `O=C/C=C/c1ccccc1` [cinnamaldehyde], for which the “[Ca2+]i-influx response” value in the series with MDCK cells (1 mM) is “evoked [Ca^2+]i-influx responses”.
On to `OO` [hydrogen peroxide], for which the “[Ca2+]i-influx response” value in the series on MDCK cells (20 mM) is “evoked [Ca^2+]i-influx responses”. In the series on TRPA1 (H2O2 5 mM), the “effect of DTT (2 mM) on agonist-evoked TRPA1 current” value was “rapidly reduced the current amplitude” and the “outward TRPA1 current after removal of agonist” value is “remained at a stable amplitude after removal of H2O2”.
For the compound `CC1=C[C@H]2c3c(O)cc(C)cc3OC(C)(C)[C@@H]2CC1` [Δ^9-tetrahydrocannabiorcol], the “amplitude of [Ca2+]i-responses in mTRPA1 K712Q compared to WT mTRPA1” value at mTRPA1 K712Q (20 µM (Fig. 4D)) was “significantly reduced”.
